Experimental data published in patent US7951905B2, “Synthesis of carbohydrate-templated amino acids and methods of using same” (University of Manitoba, priority 2006, dated 2011).

What was measured:
[1] = Trans/cis ratio (Kt/c) of prolyl amide isomers by 500 MHz NMR; format: physicochemical
Protocol: For each of 11-13, the ratio of trans/cis isomers was calculated by integrating as many well-resolved peaks as possible for each isomer, and taking the average of over all peaks for respective isomers (Taylor et al., 2003). The assignment of N-terminal amide geometry for both major and minor isomers of 11-16 was based on multiple GOESY experiments (Stronehouse et al., 1994).
Experiments were undertaken to determine the Kt/c effect of certain fused bicyclic sugar-proline-containing peptides. A very similar profile of Kt/c for the Ac-Gly-GlcPro-NHMe model compounds 14-16 compared to the Ac-GlcPro-NHMe model compounds 11-13 (Table 1) was observed. In CD3OD, there was an increase in the cis-content as the sugar substituent changed from benzyl 14 (<3%), to hydroxyl 15 (15%), to acetate 16 (25%).

[2] = D2O; n.s. = not soluble (footnote b)

| SMILES | % cis isomer ([1]; CD3OD, 500 MHz NMR at 25° C.) | Trans/cis ratio (Kt/c) ([1]; CD3OD, 500 MHz NMR at 25° C.) | % cis isomer ([1]; CDCl3, 500 MHz NMR at 25° C.) | Trans/cis ratio (Kt/c) ([1]; CDCl3, 500 MHz NMR at 25° C.) | solubility in solvent [2] | % cis isomer ([1]; D2O, 500 MHz NMR at 25° C.) | Trans/cis ratio (Kt/c) ([1]; D2O, 500 MHz NMR at 25° C.) |
| --- | --- | --- | --- | --- | --- | --- | --- |
| CNC(=O)[C@@H]1C[C@H]2O[C@H](COCc3ccccc3)[C@H](OCc3ccccc3)[C@@H](OCc3ccccc3)[C@H]2N1C(=O)CNC(C)=O [Compound 14, N-Acetyl-glycyl-(2S,3aR,5R,6R,7S,7aS)-6,7-di-O-benzyl-octahydro-5-(phenylmethyl hydroxymethyl)-pyrano[3,2-b]pyrrole-2-carboxamide N′-methylamide] | < 3% | > 30 | 5% | 19 | n.s.^[b] |  |  |
| CNC(=O)[C@@H]1C[C@H]2O[C@H](CO)[C@H](O)[C@@H](O)[C@@H]2N1C(=O)CNC(C)=O [Compound 15, N-Acetyl-glycyl-(2S,3aR,5R,6R,7S,7aS)-6,7-dihydroxy-5-(hydroxymethyl)-octahydro-pyrano[3,2-b]pyrrole-2-carboxamide N′-methylamide] | 15% | 5.7 |  |  |  | 10% | 9 |
| CNC(=O)[C@@H]1C[C@H]2O[C@H](COC(C)=O)[C@H](OC(C)=O)[C@@H](OC(C)=O)[C@H]2N1C(=O)CNC(C)=O [Compound 16, N-Acetyl-glycyl-(2S,3aR,5R,6R,7S,7aS)-6,7-di-O-acetyl-5-(hydroxymethyl-O-acetyl)-octahydro-pyrano[3,2-b]pyrrole-2-carboxamide N′-methylamide] | 25% | 3 | 20% | 4 |  |  |  |
